Where a name gives a salt, the structure may show the parent alone.
How the values were obtained:
Human preadipocytes = test: Fat breakdown stimulation: triglyceride accumulation in adipocytes (oil red staining, colorimetry); format: cell-based; conditions: for effect of stimulating fat metabolism: conclusion from Table 2, 50 μM, 5 days; for Triglyceride accumulation: relative to untreated adipocytes (100), 50 μM test substance, 5 days incubation
Description: Human preadipocytes (available from TOYOBO Co., LTD.) were seeded on a 96-well microplate and were incubated at 37° C. and 5% CO2 using human preadipocyte growth medium TAGM (available from TOYOBO Co., LTD.) while renewing the medium every two days. The growth medium was changed to human adipocyte differentiation medium TADM (available from TOYOBO Co., LTD.), and incubation was carried out for 5 days. Subsequently, the medium was changed to an evaluation medium as shown in Table 1 below without or with 50 μM of any of the test substances described below. The incubation was carried out for 5 days.
The adipocytes were washed with Dulbecco's PBS (−) three times and were formalin fixed. The adipocytes were stained with an oil red/water-isopropanol (1/1) solution, and were extracted with isopropanol. Triglyceride accumulated in the adipocytes was determined by a colorimetry method.

[1] = Stability of carnitine derivatives in aqueous solution at 80° C. (RPHPLC); format: physicochemical; conditions: 0.3% by mass in PBS(-) with 5% 1,2-hexanediol, pH 7, 80° C.; changes with time; FIG. 2
Description: The test substances were each dissolved in Dulbecco's PBS (−) containing 5% by mass of 1,2-hexanediol, followed by adding 1N NaOH to adjust the pH to 7. Consequently, 0.3% by mass solutions of the test substances were prepared. The solutions were tightly encapsulated in glass vials and were temperature controlled at 80° C. in a water bath.
After the lapse of a predetermined time, the solutions were collected and were analyzed by RPHPLC (column: Shodex C8-5B, eluting solution: 70% acetonitrile, flow rate: 1.0 ml/min). The remaining carnitine derivatives originating from the test substances were determined from the UV absorption intensity at 210 nm.

[2] = Percutaneous absorption through three-dimensional human skin model, two-chamber test; format: in vitro ADME; conditions: 0.3% by mass solution, pH 7, 35° C., after 24 hours; compared with L-carnitine palmitate; FIG. 1
Description: The test substances were each dissolved in Dulbecco's PBS (−) containing 5% by mass of 1,2-hexanediol, followed by adding 1N NaOH to adjust the pH to 7. Consequently, 0.3% by mass solutions of the test substances were prepared. Two chambers were separated through a three-dimensional model of human skin tissue (TESTSKIN™ LSD-d, available from TOYOBO CO., LTD.). 3 ml of each test substance solution was placed into a chamber on the epidermis side, and 3 ml of Dulbecco's PBS (−) was placed into a chamber on the dermis side. They were stirred with magnetic stirrers at 35° C. for 24 hours.
After the lapse of 24 hours, 1 ml of the buffer solution in the dermis-side chamber was collected, and 0.5 ml of the solution collected was analyzed to determine free carnitine. The remaining portion of the solution collected was adjusted to pH 11 with 1N NaOH, was encapsulated in a 1.5 ml screw vial, and was allowed to stand at 80° C. for 6 hours, followed by cooling. The pH of the solution was adjusted to 7 with 1N HCl, whereby all acylcarnitine derivatives were decomposed to free carnitine. These solutions were each combined with 0.02 ml of 1N hydrochloric acid, 0.1 ml of 1.6% by mass 1-aminoanthracene-in acetone solution and 0.1 ml of 16% by mass aqueous EDC (1-ethyl-3-(3-dimethylaminopropyl)carbodiimide hydrochloride) solution, followed by sufficient stirring. The solutions were allowed to stand still at room temperature for 20 minutes and were washed with 3 ml of diethylether. The aqueous phases were filtered and were analyzed by reversed-phase high performance liquid chromatography (RPHPLC) (column: Phenomenex Synergi-RP, eluting solution: 45% acetonitrile, flow rate: 1.0 ml/min) to determine peak intensities assigned to 1-aminoanthracene-modified carnitine (excitation wavelength: 248 nm, fluorescent wavelength: 418 nm). The concentrations of carnitine derivatives and free carnitine originating from the test substances in the solution in the dermis-side chamber were calculated and determined from the aforesaid peak intensities. […]

Structure (SMILES): CCCCCCC(CCCC)C(=O)OC(CC(=O)[O-])C[N+](C)(C)C [L-carnitine 2-butyloctanoate hydrochloride]
- effect of stimulating fat metabolism (Human preadipocytes): good effects of stimulating fat metabolism
- Triglyceride accumulation (Human preadipocytes): 90
- residual ratio of carnitine derivatives in aqueous solution [1]: higher residual ratio and were exceptionally more stable in aqueous solutions than the acylcarnitines having a straight-chain acyl group
- L-carnitine concentration (carnitine derivatives and free carnitine) passed to the dermis-side chamber [2]: comparable or higher L-carnitine concentrations than that obtained with L-carnitine palmitate

Structure (SMILES): CCCCCCCCC(CCCCCC)C(=O)OC(CC(=O)[O-])C[N+](C)(C)C [L-carnitine 2-hexyldecanoate hydrochloride]
- effect of stimulating fat metabolism (Human preadipocytes): good effects of stimulating fat metabolism
- Triglyceride accumulation (Human preadipocytes): 89
- residual ratio of carnitine derivatives in aqueous solution [1]: higher residual ratio and were exceptionally more stable in aqueous solutions than the acylcarnitines having a straight-chain acyl group
- L-carnitine concentration (carnitine derivatives and free carnitine) passed to the dermis-side chamber [2]: comparable or higher L-carnitine concentrations than that obtained with L-carnitine palmitate

Structure (SMILES): CCCCCCCCCCCCCCC(C)C(=O)OC(CC(=O)[O-])C[N+](C)(C)C [L-carnitine 2-methylpalmitate hydrochloride]
- effect of stimulating fat metabolism (Human preadipocytes): good effects of stimulating fat metabolism
- Triglyceride accumulation (Human preadipocytes): 89
- residual ratio of carnitine derivatives in aqueous solution [1]: higher residual ratio and were exceptionally more stable in aqueous solutions than the acylcarnitines having a straight-chain acyl group
- L-carnitine concentration (carnitine derivatives and free carnitine) passed to the dermis-side chamber [2]: comparable or higher L-carnitine concentrations than that obtained with L-carnitine palmitate

Structure (SMILES): C[N+](C)(C)C[C@H](O)CC(=O)[O-].Cl [L-carnitine hydrochloride, reference compound]
- Triglyceride accumulation (Human preadipocytes): 98

Structure (SMILES): CCCCCCCCCCCCCCCC(=O)O[C@H](CC(=O)[O-])C[N+](C)(C)C.Cl [L-carnitine palmitate hydrochloride, reference compound]
- Triglyceride accumulation (Human preadipocytes): 87
